Values joined by “and” are separate entries in the source; they are usually repeats but may differ in a detail not shown here. Equal entries are not always repeated. Inconclusive results and toxic doses are left out. Rule for the calls: active = survival T/C of 150% or more; inactive = T/C below 125% in these data.
System: P388 leukemia ip, CD2F1 mice, survival T/C
Assay: NCI In Vivo Anticancer Drug Screen. Data for tumor model P388 Leukemia (intraperitoneal) in CD2F1 (CDF1) mice
Settings: endpoint: median survival time, higher = longer survival
Procedure, shortened: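 Mice carrying the transplanted tumor received test compound or vehicle. Survival was recorded in each group, and the value is the treated-group measurement divided by that of the vehicle-treated control group.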

[1] = dose: 25.0 mg/kg/injection, schedule: Q01DX001 (ip), vehicle: Klucel (hydroxypropylcellulose) (HPC)
[2] = dose: 50.0 mg/kg/injection, schedule: Q01DX001 (ip), vehicle: Klucel (hydroxypropylcellulose) (HPC)

Measured: T/C

CC(=O)c1ccc2ccccc2c1OC(=O)c1cccnc1
inactive: dose: 6.25 mg/kg/injection, schedule: Q01DX009 (ip), vehicle: distilled water + Tween-80 100 % of control | dose: 12.5 mg/kg/injection, schedule: Q01DX009 (ip), vehicle: distilled water + Tween-80 104 % of control | dose: 25.0 mg/kg/injection, schedule: Q01DX009 (ip), vehicle: distilled water + Tween-80 111 % of control and 94 % of control | dose: 50.0 mg/kg/injection, schedule: Q01DX009 (ip), vehicle: distilled water + Tween-80 107 % of control and 111 % of control | dose: 100.0 mg/kg/injection, schedule: Q01DX009 (ip), vehicle: distilled water + Tween-80 117 % of control and 119 % of control | dose: 200.0 mg/kg/injection, schedule: Q01DX009 (ip), vehicle: distilled water + Tween-80 121 % of control

C[Si](C)(C)CC[Si]12OCCN(CCO1)CCO2
inactive: dose: 50.0 mg/kg/injection, schedule: Q01DX005 (ip), vehicle: Klucel (hydroxypropylcellulose) (HPC) 106 % of control | dose: 100.0 mg/kg/injection, schedule: Q01DX005 (ip), vehicle: Klucel (hydroxypropylcellulose) (HPC) 104 % of control | dose: 200.0 mg/kg/injection, schedule: Q01DX005 (ip), vehicle: Klucel (hydroxypropylcellulose) (HPC) 92 % of control

CC12CCC(N3CCCC3)CC1=CCC1C2CCC2(C)C1CCCN2CCO (centres undefined)
inactive: dose: 12.5 mg/kg/injection, schedule: Q01DX001 (ip), vehicle: Klucel (hydroxypropylcellulose) (HPC) 99 % of control | [1] 99 % of control | [2] 103 % of control

CNC(=O)Oc1ccc2c(c1)[C@]1(C)CCN(C)[C@@H]1N2C
inactive: dose: 0.05 mg/kg/injection, schedule: Q01DX005 (ip), vehicle: saline with Tween-80 98 % of control | dose: 0.05 mg/kg/injection, schedule: Q01DX009 (ip), vehicle: saline 102 % of control | dose: 0.1 mg/kg/injection, schedule: Q01DX005 (ip), vehicle: saline with Tween-80 99 % of control | dose: 0.1 mg/kg/injection, schedule: Q01DX009 (ip), vehicle: saline 101 % of control | dose: 0.2 mg/kg/injection, schedule: Q01DX005 (ip), vehicle: saline with Tween-80 99 % of control | dose: 0.2 mg/kg/injection, schedule: Q01DX009 (ip), vehicle: saline 97 % of control | dose: 0.4 mg/kg/injection, schedule: Q01DX005 (ip), vehicle: saline with Tween-80 93 % of control | dose: 0.4 mg/kg/injection, schedule: Q01DX009 (ip), vehicle: saline 111 % of control

COC(=O)c1cc(OC(C)=O)c2cc3c(cc2c1-c1cc(OC)c(OC)c(OC)c1)OCO3
inactive: dose: 100.0 mg/kg/injection, schedule: Q04DX003 (ip), vehicle: Klucel (hydroxypropylcellulose) (HPC) 93 % of control | dose: 200.0 mg/kg/injection, schedule: Q04DX003 (ip), vehicle: Klucel (hydroxypropylcellulose) (HPC) 89 % of control

O=c1[nH]c2c([N+](=O)[O-])cc(Cl)cc2nc1/C=C(\O)c1ccc(Cl)cc1
inactive: dose: 30.0 mg/kg/injection, schedule: Q01DX005 (ip), vehicle: Klucel (hydroxypropylcellulose) (HPC) 99 % of control | dose: 60.0 mg/kg/injection, schedule: Q01DX005 (ip), vehicle: Klucel (hydroxypropylcellulose) (HPC) 100 % of control | dose: 120.0 mg/kg/injection, schedule: Q01DX005 (ip), vehicle: Klucel (hydroxypropylcellulose) (HPC) 99 % of control and 108 % of control | dose: 240.0 mg/kg/injection, schedule: Q01DX005 (ip), vehicle: Klucel (hydroxypropylcellulose) (HPC) 105 % of control

O=C1O[C@@H]2C3COC(O)[C@](O)(O3)[C@@H]2/C1=C\c1ccc(O)cc1 (some centres undefined)
inactive: dose: 4.0 mg/kg/injection, schedule: Q01DX005 (ip), vehicle: DMSO 115 % of control | dose: 8.0 mg/kg/injection, schedule: Q01DX005 (ip), vehicle: DMSO 109 % of control | dose: 16.0 mg/kg/injection, schedule: Q01DX005 (ip), vehicle: DMSO 113 % of control | dose: 32.0 mg/kg/injection, schedule: Q01DX005 (ip), vehicle: DMSO 113 % of control

COC(=O)C/C(=C/C=C1/C(=O)ON=C1C)c1c(C)[nH]oc1=O
inactive: dose: 100.0 mg/kg/injection, schedule: Q04DX003 (ip), vehicle: saline 100 % of control | dose: 200.0 mg/kg/injection, schedule: Q04DX003 (ip), vehicle: saline 100 % of control | dose: 400.0 mg/kg/injection, schedule: Q04DX003 (ip), vehicle: saline 100 % of control

O=C(NC(Cc1cccs1)C(=O)O)c1ccccc1 (centres undefined)
inactive: dose: 25.0 mg/kg/injection, schedule: Q01DX009 (ip), vehicle: other 102 % of control | dose: 50.0 mg/kg/injection, schedule: Q01DX009 (ip), vehicle: other 96 % of control | dose: 100.0 mg/kg/injection, schedule: Q01DX009 (ip), vehicle: other 102 % of control

COc1ccc(CCNC(=O)CC2CCN(C)CC2)cc1OC
inactive: dose: 100.0 mg/kg/injection, schedule: Q04DX003 (ip), vehicle: saline with Tween-80 101 % of control | dose: 200.0 mg/kg/injection, schedule: Q04DX003 (ip), vehicle: saline with Tween-80 100 % of control

CCC1(C#N)N=C(c2ccccc2)c2ccccc2N1C(=O)Oc1ccccc1 (centres undefined)
inactive: dose: 50.0 mg/kg/injection, schedule: Q01DX005 (ip), vehicle: saline with Tween-80 89 % of control | dose: 100.0 mg/kg/injection, schedule: Q01DX005 (ip), vehicle: saline with Tween-80 98 % of control | dose: 200.0 mg/kg/injection, schedule: Q01DX005 (ip), vehicle: saline with Tween-80 95 % of control

Nc1nc(N)c2c(n1)CCCC2
inactive: dose: 6.25 mg/kg/injection, schedule: Q04DX003 (ip), vehicle: saline with Tween-80 105 % of control | dose: 12.5 mg/kg/injection, schedule: Q04DX003 (ip), vehicle: saline with Tween-80 100 % of control | dose: 25.0 mg/kg/injection, schedule: Q04DX003 (ip), vehicle: saline with Tween-80 100 % of control

NC(=S)c1ccc(C=Nc2ccc(I)cc2)cc1
inactive: [1] 93 % of control | [2] 102 % of control | dose: 100.0 mg/kg/injection, schedule: Q01DX001 (ip), vehicle: Klucel (hydroxypropylcellulose) (HPC) 100 % of control

COc1ccc(-c2nn(CCO)c(=O)c(C#N)c2-c2ccc(OC)cc2)cc1
inactive: dose: 25.0 mg/kg/injection, schedule: Q04DX002 (ip), vehicle: distilled water + Tween-80 101 % of control | dose: 50.0 mg/kg/injection, schedule: Q04DX002 (ip), vehicle: distilled water + Tween-80 98 % of control | dose: 100.0 mg/kg/injection, schedule: Q04DX002 (ip), vehicle: distilled water + Tween-80 103 % of control | dose: 200.0 mg/kg/injection, schedule: Q04DX002 (ip), vehicle: distilled water + Tween-80 89 % of control

COC(=O)C[CH2][Sn]([CH2]CC(=O)OC)([c]1ccccc1)[c]1ccccc1
inactive: dose: 50.0 mg/kg/injection, schedule: Q01DX005 (ip), vehicle: saline 100 % of control | dose: 100.0 mg/kg/injection, schedule: Q01DX005 (ip), vehicle: saline 100 % of control | dose: 200.0 mg/kg/injection, schedule: Q01DX005 (ip), vehicle: saline 97 % of control

CON1C(=O)C(c2ccccc2)c2ccccc21 (centres undefined)
inactive: dose: 60.0 mg/kg/injection, schedule: Q01DX005 (ip), vehicle: saline with Tween-80 106 % of control | dose: 120.0 mg/kg/injection, schedule: Q01DX005 (ip), vehicle: saline with Tween-80 96 % of control | dose: 240.0 mg/kg/injection, schedule: Q01DX005 (ip), vehicle: saline with Tween-80 96 % of control

CCN(CC)CCNc1nc(NCCN(CC)CC)c2cn[nH]c2n1
inactive: dose: 1.5 mg/kg/injection, schedule: Q01DX005 (ip), vehicle: saline 99 % of control | dose: 3.0 mg/kg/injection, schedule: Q01DX005 (ip), vehicle: saline 103 % of control | dose: 6.0 mg/kg/injection, schedule: Q01DX005 (ip), vehicle: saline 100 % of control and 102 % of control

CCN(CC)C(=O)N1CCN(C(=O)c2cc(Nc3ccnc4cc(Cl)ccc34)ccc2O)CC1
inactive: dose: 100.0 mg/kg/injection, schedule: Q04DX002 (ip), vehicle: saline with Tween-80 100 % of control | dose: 200.0 mg/kg/injection, schedule: Q04DX002 (ip), vehicle: saline with Tween-80 100 % of control | dose: 400.0 mg/kg/injection, schedule: Q04DX002 (ip), vehicle: saline with Tween-80 89 % of control

O=C1CSC(=S)N1c1ccccc1C(F)(F)F
inactive: dose: 50.0 mg/kg/injection, schedule: Q01DX009 (ip), vehicle: suspension in saline 91 % of control | dose: 100.0 mg/kg/injection, schedule: Q01DX009 (ip), vehicle: suspension in saline 96 % of control | dose: 200.0 mg/kg/injection, schedule: Q01DX009 (ip), vehicle: suspension in saline 93 % of control

CCOC(=O)/C(C=NCC(C)(CN=C/C(C(=O)OCC)=C(/C)O)CN=C/C(C(=O)OCC)=C(/C)O)=C(\C)O (centres undefined)
inactive: dose: 50.0 mg/kg/injection, schedule: Q01DX009 (ip), vehicle: Klucel (hydroxypropylcellulose) (HPC) 93 % of control | dose: 100.0 mg/kg/injection, schedule: Q01DX009 (ip), vehicle: Klucel (hydroxypropylcellulose) (HPC) 90 % of control | dose: 200.0 mg/kg/injection, schedule: Q01DX009 (ip), vehicle: Klucel (hydroxypropylcellulose) (HPC) 87 % of control
